Active and inactive are the calls of the source. No cut-off for these calls is given here.
Assays:
SH-SY5Y [1] = assay: Antioxidant activity against human SH-SY5Y cells assessed as increase in basal ECAR at 10 uM incubated for 24 hrs followed by addition of oligomycin/FCCP/antimycin A /rotenone by Cell Mito stress assay based seahorse XF96 flux analyzer; format: functional
SH-SY5Y [2] = assay: Effect on cell death pathway in human SH-SY5Y cells assessed as decrease in early apoptotic cells at 10 uM incubated for 24 hrs by Annexin V-FITC/PI staining based microscopy; format: functional
[3] = Cytotoxicity against human HepG2 cells assessed as cell viability incubated for 24 hrs; format: toxicity, cell-based; details: read-out: Activity
SH-SY5Y [4] = assay: Neuroprotective activity against H2O2-induced human SH-SY5Y cells assessed as increase in cell viability at 50 uM preincubated for 30 mins followed by H2O2 addition and measured after 24 hrs by SRB assay; format: functional, cell-based; details: time 24.5 hrs
SH-SY5Y [5] = assay: Neuroprotective activity against H2O2-induced human SH-SY5Y cells assessed as increase in cell viability at 10 uM preincubated for 30 mins followed by H2O2 addition and measured after 24 hrs by SRB assay; format: functional, cell-based; details: time 24.5 hrs
SH-SY5Y [6] = assay: Induction of mitochondrial membrane polarization in human SH-SY5Y cells at 50 uM incubated for 24 hrs by JC-1 staining based fluorescence assay; format: functional
SH-SY5Y [7] = assay: Neuroprotective activity against tBHP-induced human SH-SY5Y cells assessed as increase in cell viability at 10 uM preincubated for 30 mins followed by t-BHP addition at 15 uM and measured after 24 hrs by neutral dye uptake assay relative to control; format: functional; details: time 24.5 hrs
[8] = Drug uptake in C57BL/6J mouse liver mitochondria at 5 uM in presence of FCCP by UPLC analysis; format: ADME
SH-SY5Y [9] = assay: Effect on cell death pathway in human SH-SY5Y cells assessed as decrease in early apoptotic cells at 50 uM incubated for 24 hrs by Annexin V-FITC/PI staining based microscopy; format: functional
SH-SY5Y [10] = assay: Effect on cell death pathway in human SH-SY5Y cells assessed as decrease in necrotic cells at 50 uM incubated for 24 hrs by Annexin V-FITC/PI staining based microscopy; format: functional
SH-SY5Y [11] = assay: Effect on cell death pathway in human SH-SY5Y cells assessed as decrease in late apoptotic cells at 50 uM incubated for 24 hrs by Annexin V-FITC/PI staining based microscopy; format: functional
[12] = Dissociation constant, pKa of the compound by UV-vis spectrophotometric analysis; format: physicochemical
SH-SY5Y [13] = assay: Cytotoxicity against human SH-SY5Y cells assessed as increase in cell viability at 10 to 100 uM incubated for 24 hrs; format: toxicity, cell-based; details: dose 10-100 µM
[14] = Drug uptake in C57BL/6J mouse liver mitochondria at 5 uM in presence of rotenone by UPLC analysis; format: ADME
SH-SY5Y [15] = assay: Antioxidant activity against human SH-SY5Y cells assessed as increase in spare respiratory capacity at 10 uM incubated for 24 hrs followed by addition of oligomycin/FCCP/antimycin A /rotenone by Cell Mito stress assay based seahorse XF96 flux analyzer; format: functional
SH-SY5Y [16] = assay: Antioxidant activity against human SH-SY5Y cells assessed as increase in basal OCR at 10 uM incubated for 24 hrs followed by addition of oligomycin/FCCP/antimycin A /rotenone by Cell Mito stress assay based seahorse XF96 flux analyzer; format: functional
SH-SY5Y [17] = assay: Neuroprotective activity against tBHP-induced human SH-SY5Y cells assessed as increase in cell viability at 50 uM preincubated for 30 mins followed by t-BHP addition at 15 uM and measured after 24 hrs by neutral dye uptake assay relative to control; format: functional; details: time 24.5 hrs
SH-SY5Y [18] = assay: Antioxidant activity against human SH-SY5Y cells assessed as increase in ATP production-linked respiration at 10 uM incubated for 24 hrs followed by addition of oligomycin/FCCP/antimycin A /rotenone by Cell Mito stress assay based seahorse XF96 flux analyzer; format: functional
SH-SY5Y [19] = assay: Cytotoxicity against human SH-SY5Y cells incubated for 48 hrs; format: toxicity, cell-based
HepG2 = assay: Cytotoxicity against human HepG2 cells assessed as increase in cell viability at 10 to 100 uM incubated for 24 hrs; format: toxicity, cell-based; details: hepg2, 24 h, dose 10-100 µM
SH-SY5Y [20] = assay: Antioxidant activity against human SH-SY5Y cells assessed as increase in maximal respiration at 10 uM incubated for 24 hrs followed by addition of oligomycin/FCCP/antimycin A /rotenone by Cell Mito stress assay based seahorse XF96 flux analyzer; format: functional
SH-SY5Y [21] = assay: Antioxidant activity against human SH-SY5Y cells assessed as increase in basal respiration at 10 uM incubated for 24 hrs followed by addition of oligomycin/FCCP/antimycin A /rotenone by Cell Mito stress assay based seahorse XF96 flux analyzer; format: functional
SH-SY5Y [22] = assay: Neuroprotective activity against tBHP-induced human SH-SY5Y cells assessed as increase in cell viability at 50 uM preincubated for 30 mins followed by t-BHP addition and measured after 24 hrs by SRB assay; format: functional, cell-based; details: time 24.5 hrs
SH-SY5Y [23] = assay: Effect on cell death pathway in human SH-SY5Y cells assessed as decrease in late apoptotic cells at 10 uM incubated for 24 hrs by Annexin V-FITC/PI staining based microscopy; format: functional
SH-SY5Y [24] = assay: Antioxidant activity against human SH-SY5Y cells assessed as effect on intracellular ATP level at 50 uM incubated for 24 hrs followed by addition of oligomycin/FCCP/antimycin A /rotenone by Cell Mito stress assay based seahorse XF96 flux analyzer; format: functional
SH-SY5Y [25] = assay: Neuroprotective activity against tBHP-induced human SH-SY5Y cells assessed as increase in cell viability at 10 uM preincubated for 30 mins followed by t-BHP addition and measured after 24 hrs by SRB assay; format: functional, cell-based; details: time 24.5 hrs
[26] = Cytotoxicity against human SH-SY5Y cells assessed as cell viability incubated for 24 hrs; format: toxicity, cell-based; details: read-out: Activity
SH-SY5Y [27] = assay: Effect on cell death pathway in human SH-SY5Y cells assessed as decrease in necrotic cells at 10 uM incubated for 24 hrs by Annexin V-FITC/PI staining based microscopy; format: functional
[28] = Drug uptake in C57BL/6J mouse liver mitochondria at 5 uM in presence of succinate by UPLC analysis; format: ADME
SH-SY5Y [29] = assay: Induction of mitochondrial membrane polarization in human SH-SY5Y cells at 10 uM incubated for 24 hrs by JC-1 staining based fluorescence assay; format: functional
SH-SY5Y [30] = assay: Neuroprotective activity against tBHP-induced human SH-SY5Y cells assessed as increase in cell viability at 50 uM preincubated for 30 mins followed by t-BHP addition at 30 uM and measured after 24 hrs by neutral dye uptake assay relative to control; format: functional; details: time 24.5 hrs
SH-SY5Y [31] = assay: Effect on cell mitochondrial mass in human SH-SY5Y cells assessed as reduction on mitochondrial mass at 50 uM incubated for 24 hrs by mito-tracker green dye based flow cytometry; format: functional; design: scale not given: the % may be the effect or the level left

CS(=O)(=O)[O-].O=C(/C=C/c1ccc(O)c(O)c1)NCCCCCCCCCC[n+]1ccc2ccccc2c1
Activity (SH-SY5Y [1]): Active | Activity (SH-SY5Y [2]): Active | viability at 24 h [3]: ≥ 85% | Activity (SH-SY5Y [4]): inactive | Activity (SH-SY5Y [5]): inactive | Activity (SH-SY5Y [6]): 81.5% | Activity (SH-SY5Y [7]): 85.6% | Drug uptake [8]: Active | Activity (SH-SY5Y [9]): Active | Activity (SH-SY5Y [10]): Active | Activity (SH-SY5Y [11]): Active | pKa [12]: 8.45 | Activity (SH-SY5Y [13]): Non-Toxic | Drug uptake [14]: Not Active | Activity (SH-SY5Y [15]): Active | Activity (SH-SY5Y [16]): Active | Activity (SH-SY5Y [17]): 89.7% | Activity (SH-SY5Y [18]): Active | Activity (SH-SY5Y [19]): Non-Toxic | Activity (HepG2): Non-Toxic | Activity (SH-SY5Y [20]): Active | Activity (SH-SY5Y [21]): Active | Activity (SH-SY5Y [22]): Active | Activity (SH-SY5Y [23]): Active | Activity (SH-SY5Y [24]): 87.9% | Activity (SH-SY5Y [25]): Active | viability at 24 h [26]: ≥ 85% | Activity (SH-SY5Y [27]): Active | Drug uptake [28]: ~ 25% | Activity (SH-SY5Y [29]): inactive | Activity (SH-SY5Y [30]): 59.6% | Activity (SH-SY5Y [31]): 86.8%

From ChEMBL document CHEMBL5316331, “Modulating Cytotoxicity with Lego-like Chemistry: Upgrading Mitochondriotropic Antioxidants with Prototypical Cationic Carrier Bricks” (J Med Chem, 2023)
